9 compounds from article PMC7144195, “Synthesis, antitumor activity, and molecular docking study of 2-cyclopentyloxyanisole derivatives: mechanistic study of enzyme inhibition” (Journal of Enzyme Inhibition and Medicinal Chemistry, 2020) can be followed below.

Where two headings read alike, the source gives them in different places.

The test system of data set [1] is HePG2 cell line. Kind of data set: In vitro antitumor MTT assay, HePG2. Type of data set: cell-based. As to the method:
(§1) The antitumor activity was performed by using the tetrazolium salt 3-(4,5-dimethyl-2-thiazolyl)-2,5-diphenyl-2H-tetrazolium bromide (MTT) assay in accordance with an established method.
(§2) Compounds 3a–c, 4a,b, 5a,b, 6a,b, 7a–e, 8, 9a–c, 10, 11, 12a–c, 13, and 14 were screened for their in vitro antitumor activity by using the standard 3-(4,5-dimethylthiazol-2-yl)-2,5-diphenyltetrazolium bromide (MTT) assay against five human cancers: HePG2, HCT-116, MCF-7, PC3, and HeLa cell lines. […].
On the technique in general: Tetrazolium assays rely on reduction of a dye to a coloured formazan, in cell work by metabolically active cells.

The subject of data set [2] is HCT-116 cell line. In words: In vitro antitumor MTT assay, HCT-116. Type of data set: cell-based.
Method: (§3) The antitumor activity was performed by using the tetrazolium salt 3-(4,5-dimethyl-2-thiazolyl)-2,5-diphenyl-2H-tetrazolium bromide (MTT) assay in accordance with an established method[39].
Data set [3] relates to MCF-7 cell line. Kind of data set: In vitro antitumor MTT assay, MCF-7. Type of data set: cell-based.
Method: as §3
Data set [4] has as its system PC3 cell line. In words: In vitro antitumor MTT assay, PC3. It is filed as cell-based.
Method: as §3
Data set [5] concerns HeLa cell line. Kind of data set: In vitro antitumor MTT assay, HeLa. Type of data set: cell-based. On the procedure:
as §1, §2

The test system of data set [6] is TNF-α. Kind of data set: TNF-α inhibition assay (human-specific sandwich ELISA). It is filed as biochemical. The note with it: read-out: IC50 (µM) TNFα inhibition. As to the method:
The concentration of TNF-α was measured by human-specific sandwich enzyme-linked immunosorbent assay (ELISA) in accordance with the manufacturer’s instructions (no. 589201, Cayman Chemical, Ann Arbour, MI)[43]^,[44].
TNF-α has been reported as a target for cancer treatment; presently, TNF antagonists are under clinical investigation in phase I and II trials as single agents for cancer therapy. […].
On the technique in general: An ELISA detects its analyte on a solid surface through an enzyme-linked reagent.

The subject of data set [7] is HePG2, HCT-116, MCF-7, PC3, and HeLa cell lines. In words: In vitro antitumor MTT assay, panel of five human cancer cell lines (text summaries). It is filed as cell-based. The note with it: read-out: IC50, antitumor activity, range over the tested cancer cell lines. On the procedure:
as §1, §2

Data set [8] has as its target T1, COX-2 (Ovis aries, UniProt P79208).
T1 construct: purchased Cayman Chemical 560101
T1 sequence (P79208 17-603): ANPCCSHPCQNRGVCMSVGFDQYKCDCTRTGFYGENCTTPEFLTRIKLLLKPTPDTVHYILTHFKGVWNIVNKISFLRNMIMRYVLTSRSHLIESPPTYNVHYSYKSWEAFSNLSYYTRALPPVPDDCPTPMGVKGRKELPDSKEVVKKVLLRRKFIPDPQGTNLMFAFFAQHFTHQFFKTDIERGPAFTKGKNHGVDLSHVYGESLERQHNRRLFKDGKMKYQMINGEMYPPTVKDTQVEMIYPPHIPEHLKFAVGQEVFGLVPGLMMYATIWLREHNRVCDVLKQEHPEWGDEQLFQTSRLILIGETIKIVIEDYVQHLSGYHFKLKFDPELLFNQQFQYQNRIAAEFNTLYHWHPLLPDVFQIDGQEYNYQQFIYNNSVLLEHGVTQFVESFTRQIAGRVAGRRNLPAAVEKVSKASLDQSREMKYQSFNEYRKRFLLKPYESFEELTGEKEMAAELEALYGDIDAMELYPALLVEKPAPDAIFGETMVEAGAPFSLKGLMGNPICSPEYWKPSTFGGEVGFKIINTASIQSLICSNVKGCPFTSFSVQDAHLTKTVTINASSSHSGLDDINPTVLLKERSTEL
Kind of data set: Colorimetric COX-2 inhibition assay (Cayman kit 560101). It is filed as biochemical. The following applies: means of three determinations.

In data set [9] the target is PDE4B (Homo sapiens, UniProt Q07343). Kind of data set: PDE4B inhibition assay. It is filed as biochemical. The following applies: read-out: IC50 (µM) PDE-4B inhibition.
Sequence of PDE4B (Q07343 whole entry): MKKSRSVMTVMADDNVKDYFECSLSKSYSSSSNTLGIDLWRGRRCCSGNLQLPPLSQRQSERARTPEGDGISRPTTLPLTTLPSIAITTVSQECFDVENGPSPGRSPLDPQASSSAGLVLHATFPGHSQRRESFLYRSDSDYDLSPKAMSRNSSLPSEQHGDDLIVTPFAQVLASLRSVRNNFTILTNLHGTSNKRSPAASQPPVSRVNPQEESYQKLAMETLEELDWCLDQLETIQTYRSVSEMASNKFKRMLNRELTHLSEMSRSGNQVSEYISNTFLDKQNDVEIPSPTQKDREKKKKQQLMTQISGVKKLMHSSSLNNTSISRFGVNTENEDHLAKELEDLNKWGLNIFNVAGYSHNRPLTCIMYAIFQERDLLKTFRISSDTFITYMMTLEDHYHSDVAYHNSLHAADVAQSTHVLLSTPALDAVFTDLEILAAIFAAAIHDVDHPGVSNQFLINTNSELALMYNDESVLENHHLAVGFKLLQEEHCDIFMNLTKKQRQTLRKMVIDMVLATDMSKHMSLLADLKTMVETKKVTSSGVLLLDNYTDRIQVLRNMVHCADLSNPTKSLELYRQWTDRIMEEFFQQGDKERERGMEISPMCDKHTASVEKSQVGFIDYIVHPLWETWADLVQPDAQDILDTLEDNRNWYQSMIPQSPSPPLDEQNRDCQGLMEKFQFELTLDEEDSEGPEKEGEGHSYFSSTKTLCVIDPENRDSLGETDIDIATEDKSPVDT
[10] abbreviates: Homo sapiens, HepG2; read-out: IC50 (µM) HePG2.
The mark [11] stands for this setting: Homo sapiens, HCT-116; read-out: IC50 (µM) HCT-116.
Setting [12] is: Homo sapiens, MCF7; read-out: IC50 (µM) MCF-7.
Where [13] appears, read: Homo sapiens, PC-3; read-out: IC50 (µM) PC3.
[14] abbreviates: Homo sapiens; read-out: IC50 (µM) HeLa.
Where [15] appears, read: Homo sapiens, range over (all or some of) HePG2, HCT-116, MCF-7, PC3, HeLa.
The mark [16] stands for this setting: range over (all or some of) HePG2, HCT-116, MCF-7, PC3, HeLa.

As for `Cc1ccc(-c2cc(C(F)(F)F)nn2-c2ccc(S(N)(=O)=O)cc2)cc1` [Celecoxib, celecoxib, reference compound], the IC50 worked out at 25.6 ± 2.3 µM in data set [1] (Homo sapiens, HepG2, read-out: IC50 (µM) HePG2); 29.5 ± 2.1 µM in [2] (Homo sapiens, HCT-116, read-out: IC50 (µM) HCT-116); 31.3 ± 2.5 µM in [3] (Homo sapiens, MCF7, read-out: IC50 (µM) MCF-7); 30.7 ± 2.7 µM in data set [4] (Homo sapiens, PC-3, read-out: IC50 (µM) PC3); 36.1 ± 2.8 µM in data set [5] (Homo sapiens, read-out: IC50 (µM) HeLa); 6.44 µM in [6]. Also, the IC50 in data set [7] (Homo sapiens) was 25.6 to 36.1 µM.

Take `COc1ccc(C=C2CN(C)CCC2=O)cc1OC1CCCC1` [Compound 4a, 3-(3-(Cyclopentyloxy)-4-methoxybenzylidene)-1-methylpiperidin-4-one]: the melting point fell in the range of 253 to 255 °C. In addition, in data set [1] (setting [10]), the IC50 was determined as 6.04 ± 0.5 µM. Moreover, the IC50 in data set [2] (setting [11]) amounted to 4.38 ± 0.4 µM. Further, the IC50 in data set [3] (setting [12]) turned out to be 5.13 ± 0.3 µM. In addition, the IC50 in [4] (setting [13]) is 9.18 ± 0.8 µM. In addition, in data set [5] (setting [14]), the IC50 was 7.24 ± 0.7 µM. The compound further returned an IC50 in [8] of 3.34 µM. In addition, the IC50 in [9] was found to be 5.62 µM. Also, the IC50 in data set [6] is 2.01 µM. The IC50 in data set [7] (setting [15]) lay in the range of 4.38 to 22.9 µM. For the same compound, the IC50 in data set [7] (setting [16]) was 4.38 to 9.18 µM.

The compound `CCN1CCC(=O)C(=Cc2ccc(OC)c(OC3CCCC3)c2)C1` [Compound 4b, 3-(3-(Cyclopentyloxy)-4-methoxybenzylidene)-1-ethylpiperidin-4-one] had a melting point of 249 to 251 °C. Also, the IC50 in data set [1] (setting [10]) was determined as 11 ± 1.1 µM. In addition, the IC50 in data set [2] (setting [11]) came to 9.48 ± 0.8 µM. The IC50 in data set [3] (setting [12]) is 7.18 ± 0.8 µM. Moreover, in data set [4] (setting [13]), the IC50 is 14.3 ± 1.2 µM. Also, in data set [5] (setting [14]), the IC50 was 8.56 ± 0.9 µM. For the same compound, inhibition in data set [8] was half-maximal at 1.08 µM (IC50). In addition, the IC50 in data set [9] was 11.6 µM. Further, in data set [6], the IC50 amounted to 17.7 µM. For the same compound, the IC50 in data set [7] (setting [15]) lay within 4.38 to 22.9 µM. Moreover, the IC50 in data set [7] (setting [16]) is 7.18 to 14.3 µM.

`COc1ccc(-c2nc3c4ccccc4c4ccccc4c3n2-c2ccccc2)cc1OC1CCCC1` [Compound 7b, 2-(3-(Cyclopentyloxy)-4-methoxyphenyl)-1-phenyl-1H-phenanthro[9,10-d]imidazole] had a melting point of 295 to 297 °C. The IC50 in data set [1] (setting [10]) was 13.7 ± 1.2 µM. Moreover, the IC50 in data set [2] (setting [11]) was 19.7 ± 1.4 µM. In data set [3] (setting [12]), the 50% inhibitory concentration (IC50) stood at 11.8 ± 1.3 µM. Also, the IC50 in data set [4] (setting [13]) worked out at 22.9 ± 1.9 µM. Besides, the IC50 in data set [5] (setting [14]) was determined as 17.2 ± 1.5 µM. The compound also returned an IC50 in data set [8] of 24 µM. For the same compound, in data set [9], the IC50 came to 5.65 µM. The IC50 in data set [6] was 13.9 µM. Moreover, the IC50 in data set [7] (setting [16]) was 11.8 to 22.9 µM.

For the compound `COc1ccc(C(=S)N2CCN(C(=O)OC(C)(C)C)CC2)cc1OC1CCCC1` [Compound 9c, tert-Butyl 4-(3-(cyclopentyloxy)-4-methoxyphenylcarbonothioyl)piperazine-1-carboxylate], the melting point is 191 to 193 °C. Moreover, the IC50 in data set [1] (setting [10]) amounted to 36.3 ± 2.5 µM. Further, the IC50 in data set [2] (setting [11]) amounted to 52.9 ± 2.7 µM. For the same compound, in [3] (setting [12]), the IC50 stood at 48.9 ± 2.3 µM. Besides, the IC50 in data set [4] (setting [13]) came to 33.4 ± 2.6 µM. Moreover, the IC50 in [5] (setting [14]) stood at 40.6 ± 2.8 µM. Moreover, the IC50 in data set [7] (setting [15]) lay within 33.4 to 52.9 µM.

With `COc1ccc(C(=S)Nc2ccc(F)cc2)cc1OC1CCCC1` [Compound 10, 3-(Cyclopentyloxy)-N-(4-fluorophenyl)-4-methoxybenzothioamide], the melting point is 194 to 196 °C. Further, the IC50 in [1] (setting [10]) is 49.9 ± 3.5 µM. In data set [2] (setting [11]), the IC50 was determined as 79.1 ± 3.8 µM. In addition, the IC50 in data set [3] (setting [12]) worked out at 64.1 ± 3.1 µM. Further, the IC50 in data set [4] (setting [13]) was found to be 47.3 ± 2.9 µM. In addition, the IC50 in data set [5] (setting [14]) is 52.5 ± 3.7 µM. Further, the IC50 in data set [7] (setting [15]) was 47.3 to 79.1 µM.

`COc1ccc(C(=S)N(C)C)cc1OC1CCCC1` [Compound 11, 3-(Cyclopentyloxy)-4-methoxy-N,N-dimethylbenzothioamide] came in with a melting point of 189 to 191 °C. Further, the IC50 in data set [1] (setting [10]) was 91.2 ± 4.8 µM. Also, the IC50 in data set [2] (setting [11]) turned out to be 96.8 ± 5.5 µM. The IC50 in [3] (setting [12]) stood at 94.3 ± 4.7 µM. Moreover, the IC50 in [4] (setting [13]) came to 88.6 ± 5 µM. Besides, the IC50 in data set [5] (setting [14]) was determined as 90.9 ± 4.9 µM. For the same compound, the IC50 in [7] (setting [15]) lay in the range of 88.6 to 96.8 µM.

As for `COc1ccc(-c2[nH]c(=S)[nH]c(=O)c2C#N)cc1OC1CCCC1` [Compound 13, 6-(3-(cyclopentyloxy)-4-methoxyphenyl)-4-oxo-2-thioxo-1,2,3,4-tetrahydropyrimidine-5-carbonitrile], the IC50 amounted to 8.71 ± 0.7 µM in data set [1] (setting [10]); 7.66 ± 0.6 µM in data set [2] (setting [11]); 6.93 ± 0.5 µM in data set [3] (setting [12]); 11.5 ± 1.1 µM in [4] (setting [13]); 5.86 ± 0.6 µM in data set [5] (setting [14]); 1.88 µM in data set [8]. Besides, the half-maximal inhibitory concentration (IC50) in data set [9] is 3.98 µM; in [6], 6.72 µM; in data set [7] (setting [15]) it was 5.86 to 20.1 µM.

As to `COc1ccc(-c2nc3n(c(=O)c2C#N)C(=O)CS3)cc1OC1CCCC1` [Compound 14, 7-(3-(Cyclopentyloxy)-4-methoxyphenyl)-3,5-dioxo-2,3-dihydro-5H-thiazolo[3,2-a]pyrimidine-6-carbonitrile], the melting point lay in the range of 265 to 267 °C. In addition, the IC50 in data set [1] (setting [10]) stood at 20.1 ± 1.8 µM. In addition, in data set [2] (setting [11]), the IC50 is 34.9 ± 1.9 µM. Further, the IC50 in [3] (setting [12]) turned out to be 9.62 ± 0.9 µM. Also, the half-maximal inhibitory concentration (IC50) in data set [4] (setting [13]) stood at 15.3 ± 1.3 µM. Further, the IC50 in data set [5] (setting [14]) stood at 12.5 ± 1.2 µM. Besides, in data set [7] (setting [15]), the IC50 fell in the range of 5.86 to 20.1 µM.

By IC50 is commonly meant the concentration that gives 50% inhibition. What is called melting point is the temperature of the solid-liquid transition.
